# According to US11149047B2, “Aryl imidazoles for treatment of cancer” (Aptose Biosciences Inc., priority 2017, dated 2021):
# How the values were obtained:
# Type in all cases: cell-based
# [1] = system: MV4-11, EOL-1, and KG-1 AML cells; assay: Flow cytometry for apoptosis (Annexin V / PI); conditions: all cell lines, FIG. 10A
# Protocol: Cells were treated as described above. To determine apoptosis, cells were stained with FITC-Annexin V and propidium iodide (PI; BD Pharmingen, catalog #556570) and then analyzed on BD Accuri C6 flow cytometer. To measure DNA synthesis and phases of cell cycle, treated cells were stained with 5-ethynyl-2′-deoxyuridine (Edu) Alexa Fluor 488 (Thermo Fisher Scientific, catalog #C10425) and PI (PI/RNase A staining solution, BD Biosciences, catalog #550825). The dead cells were excluded from analysis by using Live/Dead Fixable Far Red Dead Cell Stain Kit (Thermo Fisher Scientific, catalog #L34973). Staining was performed as per the manufacturers' instructions.
# To investigate the mechanism by which COMPOUND I causes cell death, MV4-11, EOL-1, and KG-1 AML cells were treated with or without COMPOUND I and subjected to apoptotic marker detection by flowcytometry and Western blotting. Cells were stained with PI and Annexin V to distinguish between live (Annexin V and PI negative), early apoptotic (Annexin V positive and PI negative), late apoptotic (Annexin V and PI positive), and dead (Annexin V negative and PI positive) cells. […] COMPOUND I induced accumulation of c-PARP1 in a concentration- and time dependent manner that paralleled apoptosis induction as measured by Annexin V/PI staining (FIGS. 10B-C; FIG. 17B). […]
# [2] = system: MOLM-13; assay: Cytotoxicity study (MTS), 5 days; conditions: Homo sapiens, AML
# Protocol: (§1) EOL-1, GRANTA-519, Jeko-1, Jurkat, Molm-13, NOMO-1, SKM-1, and SU-DHL-6 were obtained from Leibniz-Institut DSMZ. HL-60, KG-1, Mino, MV4-11, Raji, and THP-1 were obtained from ATCC. HEL92.1.7 were obtained from the European Collection of Authenticated Cell Cultures and Ramos cells were a gift from Dr. M. Andreeff (MD Anderson Cancer Center, Houston, Tex.). All cells were cultured in complete media as per the manufacturer's instructions. Early passage cells were collected and frozen within 1 month of receipt from the manufacturer. All experiments were performed on early passage cells within 6 weeks of thawing. MycoScope Mycoplasma Detection Kit (Genlantis catalog #MY01050) was used to screen for potential contamination every 6 months. Peripheral blood mononuclear cells (PBMC) were isolated from fresh healthy donor blood using Ficoll-Paque PLUS (GE Healthcare, catalog #17-1440-02). For synthesis of COMPOUND I free base, 10-phenanthroline-5,6-dione (1.2 equivalents), acetic acid (22 volumes), 2-methyl-5-fluoroindole-3-carboxaldehyde (1.0 equivalents), and ammonium acetate (15 equivalents) were reacted under medium agitation while heated at 95±5° C. for 3 to 7 hours. The reaction was cooled to between 20° C. and 25° C., filtered, rinsed with acetic acid and ethanol, and dried with N2 purge, followed by a wash with 2:1 ethanol:water at 65° C. for 4 hours, cooling to 20° C. to 25° C., filtration, rinsing with 2:1 ethanol:water and EtOAc, and then dried with N2 purge. The purity by HPLC was 99.5%, and the structural identity was confirmed by FT-IR, ^1HNMR, ^13C NMR, and LC/MS. For Fe(COMPOUND I)3 synthesis, five molar equivalents of ferrous ion FeSO4 in water was added to COMPOUND I dissolved in ethanol. The deep red precipitate produced, Fe(COMPOUND I)3, was collected and dissolved in DMSO and characterized by HPLC and mass spectrometry as >95% pure. CX-5461 (7) was purchased from MedChem Express (catalog #HY-13323).
# (§2) Cells were plated and treated with vehicle DMSO or COMPOUND I (10 concentrations) in 96-well plates for 5 days at 37° C. and 5% CO2. Cell viability was measured using CellTiter 96 AQueous one solution (MTS) cell proliferation assay (Promega, catalog #G3581), and IC50 values were calculated using GraphPad Prism 7 software.
# [3] = system: SKM-1; assay: Cytotoxicity study (MTS), 5 days; conditions: Homo sapiens, AML
# Protocol: as §1, §2
# [4] = system: TP53, phos-CHEK1, γH2AX, MAPK14, MAPK8 in MV4-11 cells; assay: Western blot of DNA damage and cell stress pathways; conditions: 500 nmol/L
# Protocol: Cells were treated as described above. Whole-cell lysates were prepared, separated by SDS-PAGE, and transferred to nitrocellulose membranes. Densitometry was performed using ImageJ or Image Studio Lite Version5.2 software and normalized to the density of GAPDH.
# The increase in total protein was concomitant with an increase in phospho-Ser15 and acetyl-K382 (FIG. 12B). TP53 is phosphorylated at Ser15 and Ser20 in response to DNA damage, which reduces MDM2 binding and proteasomal degradation of p53. Furthermore, p53 is acetylated in response to cellular stress, and this modification can further stabilize TP53 protein levels and modulate binding activity. Activation of TP53 can trigger apoptosis through upregulation of proapoptotic factors such as BBC3 (PUMA), PMAIP1 (NOXA), and BAX. […] A concentration-dependent increase in ? H2AX was detected in all AML lines tested, thereby adding further credence to the concept that COMPOUND I triggers the DDR pathway (FIG. 12D).
# [5] = system: PEO4 and PEO1 ovarian cancer cell lines; assay: Sensitivity of BRCA2-proficient and -deficient cells; conditions: FIG. 3D
# Protocol: Cells were plated and treated with the indicated drugs in 96-well plates for 5 days. Cell viability was measured using CellTiter 96 AQueous one solution (MTS) cell proliferation assay purchased from Promega, and IC50 values were calculated using GraphPad Prism 6 Software.
# The finding that COMPOUND I produced DNA damage led to the investigation of whether cells deficient in homologous recombination were hypersensitive to this drug. The hypothesis that there would be synthetic lethality between COMPOUND I and BRCA1 deficiency using isogenic pairs of BRCA1-proficient and -deficient human cell lines was tested. […] The conclusion that BRCA1-deficient cells are hypersensitive to COMPOUND I was further supported by the results obtained in MCF7 E7 cells in which BRCA1 expression is stably knocked down by the expression of an shRNAi. […] Whether BRCA2-deficient cells are more sensitive to COMPOUND I was tested using the BRCA2-proficient and BRCA2-deficient ovarian cancer cell lines, PEO4 and PEO1, respectively. PEO1 is BRCA2-deficient and sensitive to cisplatin and a poly(ADP-ribose) polymerase inhibitor AG14361. PEO4 was derived from ascites at the time of relapse with cisplatin resistance and contains a secondary mutation that restores BRCA2 function. […] Thus, loss of either BRCA1 or BRCA2 function renders malignant cells hypersensitive to COMPOUND I.
smiles,measurement,setting,value
"Cc1[nH]c2ccc(F)cc2c1-c1nc2c3cccnc3c3ncccc3c2[nH]1 [COMPOUND I, 2-(5-fluoro-2-methyl-1H-indol-3-yl)-1H-imidazo[4,5-f][1,10]phenanthroline]",apoptotic cells at 24 hours,[1],concentration-dependent increase in apoptotic cells
same,IC50,[2],0.14 µM
same,IC50,[3],0.48 µM
same,time at which an increase in phos-CHEK1 was detected,[4],1 h
same,time of phos-CHEK1 peak,[4],approximately 4 hours
same,MAPK14 and MAPK8 phosphorylation,[4]; 4- to 6-hour treatment,increase in both MAPK14 phos-T180 and MAPK8 phos-Thr183/pTyr185
same,DDR marker γH2AX,[4]; by 6 hours,robust increase
same,TP53 levels,"[4]; 1, 3, and 6 hours",significant increase in TP53 levels
same,effect of restoration of BRCA2 function (PEO4 vs PEO1),[5],increased resistance
